Measured values: ChEMBL document CHEMBL1201861, “Genomics of Drug Sensitity in Cancer screening data, Wellcome Trust Sanger Institute”

Columns and labels:
[1] = tested on: D-336MG; assay: cells; format: functional, cell-based, Homo sapiens; settings: Homo sapiens, D-336MG
Description: SANGER: Inhibition of human D-336MG cell growth in a cell viability assay.

[2] = tested on: NCI-H1581; assay: cells; format: functional, cell-based, Homo sapiens; settings: Homo sapiens, NCI-H1581
Description: SANGER: Inhibition of human NCI-H1581 cell growth in a cell viability assay.

[3] = tested on: NCI-H1304; assay: cells; format: functional, cell-based, Homo sapiens; settings: Homo sapiens, NCI-H1304;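 also: growth inhibition of the cancer cell line, measured in a cell viability assay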
Description: SANGER: Inhibition of human NCI-H1304 cell growth in a cell viability assay.

[4] = tested on: KARPAS-299; assay: cells; format: functional, cell-based, Homo sapiens; settings: Homo sapiens, KARPAS-299
Description: SANGER: Inhibition of human KARPAS-299 cell growth in a cell viability assay.

[5] = tested on: KU812 cell line; assay: cells; format: functional, cell-based, Homo sapiens; settings: Homo sapiens, KU812;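 also: growth inhibition of KU812 cells, read out with a cell viability assay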
Description: SANGER: Inhibition of human KU812 cell growth in a cell viability assay.

[6] = tested on: U-698-M; assay: cells; format: functional, cell-based, Homo sapiens; settings: Homo sapiens, U-698-M
Description: SANGER: Inhibition of human U-698-M cell growth in a cell viability assay.

[7] = tested on: MC-CAR; assay: cells; format: functional, cell-based, Homo sapiens; settings: Homo sapiens, MC-CAR;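 also: growth inhibition of the human MC-CAR cell line, read out by a cell viability assay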
Description: SANGER: Inhibition of human MC-CAR cell growth in a cell viability assay.

[8] = tested on: HOP-62; assay: cells; format: functional, cell-based, Homo sapiens; settings: Homo sapiens, HOP-62
Description: SANGER: Inhibition of human HOP-62 cell growth in a cell viability assay.

[9] = tested on: OCI-AML2; assay: cells; format: functional, cell-based, Homo sapiens; settings: Homo sapiens, OCI-AML2;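 also: growth inhibition of OCI-AML2 cells, read out with a cell viability assay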
Description: SANGER: Inhibition of human OCI-AML2 cell growth in a cell viability assay.

[10] = tested on: KY821; assay: cells; format: functional, cell-based, Homo sapiens; settings: Homo sapiens, KY821;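 also: growth inhibition of human KY821 cells, read out by a cell viability assay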
Description: SANGER: Inhibition of human KY821 cell growth in a cell viability assay.

[11] = tested on: CTB-1; assay: cells; format: functional, cell-based, Homo sapiens; settings: Homo sapiens, CTB-1
Description: SANGER: Inhibition of human CTB-1 cell growth in a cell viability assay.

[12] = tested on: GAK; assay: cells; format: functional, cell-based, Homo sapiens; settings: Homo sapiens, GAK
Description: SANGER: Inhibition of human GAK cell growth in a cell viability assay.

[13] = tested on: BC-3; assay: cells; format: functional, cell-based, Homo sapiens; settings: Homo sapiens, BC-3;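 also: cell viability assay measuring growth inhibition of human BC-3 cells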
Description: SANGER: Inhibition of human BC-3 cell growth in a cell viability assay.

[14] = tested on: LOX IMVI; assay: cells; format: functional, cell-based, Homo sapiens; settings: Homo sapiens, LOX IMVI
Description: SANGER: Inhibition of human LOXIMVI cell growth in a cell viability assay.

[15] = tested on: SBC-1; assay: cells; format: functional, cell-based, Homo sapiens; settings: Homo sapiens, SBC-1;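 also: cell viability assay measuring growth inhibition of the SBC-1 cell line, IC50 being the concentration that halves growth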
Description: SANGER: Inhibition of human SBC-1 cell growth in a cell viability assay.

[16] = tested on: TE-1; assay: cells; format: functional, cell-based, Homo sapiens; settings: Homo sapiens, TE-1;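 also: growth inhibition of the human TE-1 cell line, read out with a cell viability assay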
Description: SANGER: Inhibition of human TE-1 cell growth in a cell viability assay.

[17] = tested on: RPMI 8402; assay: SANGER: Inhibition of human RPMI-8402 cell growth in a cell viability assay.; format: functional, cell-based; settings: Homo sapiens, RPMI 8402; read-out: IC50
[18] = tested on: TE-441-T; assay: cells; format: functional, cell-based, Homo sapiens; settings: Homo sapiens, TE-441-T
Description: SANGER: Inhibition of human TE-441-T cell growth in a cell viability assay.

[19] = tested on: NCI-H716; assay: cells; format: functional, cell-based, Homo sapiens; settings: Homo sapiens, NCI-H716;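 also: growth inhibition of human NCI-H716 cells, measured by a cell viability assay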
Description: SANGER: Inhibition of human NCI-H716 cell growth in a cell viability assay.

[20] = tested on: GI-ME-N; assay: cells; format: functional, cell-based, Homo sapiens; settings: Homo sapiens, GI-ME-N;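 also: growth inhibition of human GI-ME-N cells, read out with a cell viability assay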
Description: SANGER: Inhibition of human GI-ME-N cell growth in a cell viability assay.

[21] = tested on: Lu-65; assay: cells; format: functional, cell-based, Homo sapiens; settings: Homo sapiens, Lu-65;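 also: growth inhibition of Lu-65 cancer cells, read out by a cell viability assay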
Description: SANGER: Inhibition of human LU-65 cell growth in a cell viability assay.

[22] = tested on: NB13; assay: cells; format: functional, cell-based, Homo sapiens; settings: Homo sapiens, NB13;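 also: cell viability readout measuring growth inhibition of human NB13 cells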
Description: SANGER: Inhibition of human NB13 cell growth in a cell viability assay.

[23] = tested on: ST486; assay: SANGER: Inhibition of human ST486 cell growth in a cell viability assay.; format: functional, cell-based; settings: Homo sapiens, ST486
[24] = tested on: MZ2-MEL; assay: cells; format: functional, cell-based, Homo sapiens; settings: Homo sapiens, MZ2-MEL;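 also: growth inhibition of MZ2-MEL cells read out with a cell viability assay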
Description: SANGER: Inhibition of human MZ2-MEL cell growth in a cell viability assay.

[25] = tested on: D-392MG; assay: cells; format: functional, cell-based, Homo sapiens; settings: Homo sapiens, D-392MG
[26] = tested on: BXPC-3; assay: cells; format: functional, cell-based, Homo sapiens; settings: Homo sapiens, BXPC-3;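 also: growth inhibition of human BxPC-3 cells, read out by a cell viability assay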
Description: SANGER: Inhibition of human BxPC-3 cell growth in a cell viability assay.

[27] = tested on: 8505C; assay: cells; format: functional, cell-based, Homo sapiens; settings: Homo sapiens, 8505C
Description: SANGER: Inhibition of human 8505C cell growth in a cell viability assay.

[28] = tested on: NCI-H1437; assay: cells; format: functional, cell-based, Homo sapiens; settings: Homo sapiens, NCI-H1437;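 also: growth inhibition of human NCI-H1437 cells, read out by a cell viability assay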
Description: SANGER: Inhibition of human NCI-H1437 cell growth in a cell viability assay.

[29] = tested on: RPMI-2650; assay: cells; format: functional, cell-based, Homo sapiens; settings: Homo sapiens, RPMI-2650
Description: SANGER: Inhibition of human RPMI-2650 cell growth in a cell viability assay.

[30] = tested on: PC-14; assay: cells; format: functional, cell-based, Homo sapiens; settings: Homo sapiens, PC-14;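 also: cell viability assay measuring inhibition of PC-14 cell growth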
Description: SANGER: Inhibition of human PC-14 cell growth in a cell viability assay.

[31] = tested on: G-401; assay: cells; format: functional, cell-based, Homo sapiens; settings: Homo sapiens, G-401
Description: SANGER: Inhibition of human G-401 cell growth in a cell viability assay.

[32] = tested on: T98G; assay: cells; format: functional, cell-based, Homo sapiens; settings: Homo sapiens, T98G;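 also: growth inhibition of T98G cells, read out by a cell viability assay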
Description: SANGER: Inhibition of human T98G cell growth in a cell viability assay.

[33] = tested on: CAL-33; assay: cells; format: functional, cell-based, Homo sapiens; settings: Homo sapiens, CAL-33;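 also: growth inhibition of CAL-33 cells, read out with a cell viability assay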
Description: SANGER: Inhibition of human CAL-33 cell growth in a cell viability assay.

[34] = tested on: SKG-IIIa; assay: cells; format: functional, cell-based, Homo sapiens; settings: Homo sapiens, SKG-IIIa
Description: SANGER: Inhibition of human SKG-IIIa cell growth in a cell viability assay.

[35] = tested on: NCI-H2087; assay: cells; format: functional, cell-based, Homo sapiens; settings: Homo sapiens, NCI-H2087;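 also: growth inhibition determined with a cell viability readout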
Description: SANGER: Inhibition of human NCI-H2087 cell growth in a cell viability assay.

[36] = tested on: HCC1395; assay: cells; format: functional, cell-based, Homo sapiens; settings: Homo sapiens, HCC1395;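 also: growth inhibition of HCC1395 cells, read out by a cell viability assay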
Description: SANGER: Inhibition of human HCC1395 cell growth in a cell viability assay.

[37] = tested on: MDA-MB-453; assay: cells; format: functional, cell-based, Homo sapiens; settings: Homo sapiens, MDA-MB-453
Description: SANGER: Inhibition of human MDA-MB-453 cell growth in a cell viability assay.

[38] = tested on: FTC-133; assay: cells; format: functional, cell-based, Homo sapiens; settings: Homo sapiens, FTC-133
[39] = tested on: HO-1-N-1; assay: cells; format: functional, cell-based, Homo sapiens; settings: Homo sapiens, HO-1-N-1;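 also: growth inhibition of human HO-1-N-1 cells, read out with a cell viability assay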
Description: SANGER: Inhibition of human HO-1-N-1 cell growth in a cell viability assay.

[40] = tested on: CAPAN-1; assay: cells; format: functional, cell-based, Homo sapiens; settings: Homo sapiens, CAPAN-1;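 also: growth suppression of CAPAN-1 cells, read out by a cell viability assay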
Description: SANGER: Inhibition of human CAPAN-1 cell growth in a cell viability assay.

[41] = tested on: LN-405; assay: cells; format: functional, cell-based, Homo sapiens; settings: Homo sapiens, LN-405
Description: SANGER: Inhibition of human LN-405 cell growth in a cell viability assay.

[42] = tested on: Huh-7; assay: cells; format: functional, cell-based, Homo sapiens; settings: Homo sapiens, Huh-7;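 also: HuH-7 cell growth inhibition, read out with a cell viability assay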
Description: SANGER: Inhibition of human HuH-7 cell growth in a cell viability assay.

[43] = tested on: NCI-H2347; assay: cells; format: functional, cell-based, Homo sapiens; settings: Homo sapiens, NCI-H2347
Description: SANGER: Inhibition of human NCI-H2347 cell growth in a cell viability assay.

[44] = tested on: ASPC1; assay: cells; format: functional, cell-based, Homo sapiens; settings: Homo sapiens, ASPC1;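 also: growth inhibition of AsPC-1 cells, read out with a cell viability assay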
Description: SANGER: Inhibition of human AsPC-1 cell growth in a cell viability assay.

SMILES	IC50 [1] [nM]	IC50 [2] [nM]	IC50 [3] [nM]	IC50 [4] [nM]	IC50 [5] [nM]	IC50 [6] [nM]	IC50 [7] [nM]	IC50 [8] [nM]	IC50 [9] [nM]	IC50 [10] [nM]	IC50 [11] [nM]	IC50 [12] [nM]	IC50 [13] [nM]	IC50 [14] [nM]	IC50 [15] [nM]	IC50 [16] [nM]	IC50 [20] [nM]	IC50 [21] [nM]	IC50 [22] [nM]	IC50 [24] [nM]	also measured
COc1cc2ncn(-c3cc(OCc4ccccc4C(F)(F)F)c(C(N)=O)s3)c2cc1OC [GW843682X]	> 256	30.5	105	94.3	85.2	> 256	76.1	44.8	49.9	15.9	> 256	185	> 256	125	> 256	14.3	88.3	> 256	22	126	IC50 [17]: 4.67 nM; IC50 [18]: > 256 nM; IC50 [19]: > 256 nM; IC50 [23]: 20.4 nM
Cc1ccc(-c2c(C(=O)CCl)n(CCCO)c3ncnc(N)c23)cc1	> 4000	> 4000	> 4000	> 4000	> 4000	> 4000	> 4000	> 4000	> 4000	3680	1620	> 4000	> 4000	> 4000	> 4000	> 4000	2520	> 4000	978	> 4000	IC50 [17]: > 4000 nM; IC50 [18]: > 4000 nM; IC50 [19]: > 4000 nM; IC50 [23]: > 4000 nM
C#Cc1cccc(Nc2ncnc3cc(OCCOC)c(OCCOC)cc23)c1 [ERLOTINIB]	> 2000	> 2000		> 2000	> 2000	> 2000	> 2000	> 2000	> 2000		> 2000		> 2000	> 2000		1400	> 2000	> 2000	> 2000	> 2000	IC50 [18]: > 2000 nM; IC50 [19]: > 2000 nM; IC50 [25]: > 2000 nM; IC50 [23]: > 2000 nM
Cn1cnc2c(F)c(Nc3ccc(Br)cc3Cl)c(C(=O)NOCCO)cc21 [SELUMETINIB]		> 4000	> 4000	> 4000	212				> 4000	107	> 4000	1900		859	> 4000	> 4000	> 4000	> 4000	> 4000	394	IC50 [26]: > 4000 nM; IC50 [27]: > 4000 nM; IC50 [28]: 353 nM; IC50 [29]: > 4000 nM; IC50 [30]: > 4000 nM; IC50 [31]: > 4000 nM; IC50 [32]: > 4000 nM; IC50 [33]: 1550 nM; IC50 [34]: > 4000 nM; IC50 [35]: 1380 nM; IC50 [36]: > 4000 nM; IC50 [37]: > 4000 nM; IC50 [25]: > 4000 nM; IC50 [38]: > 4000 nM; IC50 [39]: 741 nM; IC50 [40]: > 4000 nM; IC50 [41]: > 4000 nM; IC50 [42]: > 4000 nM; IC50 [43]: > 4000 nM; IC50 [44]: 324 nM
